The text below walks through data of US20070191367A1, “3-SPIROINDOLIN-2-ONE DERIVATIVES, PREPARATION AND THERAPEUTIC USE THEREOF” (SANOFI-AVENTIS, priority 2004, published 2007).

The structures appear in SMILES notation.

The target of this test is T1, recombinant human vasopressin V2 receptors (Homo sapiens, UniProt P30518).
T1 construct: expressed in transfected cells; host or cells: CHO cell line (plasma membranes)
Kind of test: In vitro binding assay, [H3]-AVP displacement at vasopressin V2 receptors. The conditions noted are these: plasma membranes from tissues or CHO cell line; 3.5 nM [H3]-AVP; 45 minutes at 25° C.; read-out: IC50 (concentration of product that inhibits 50% of the specific binding). As to the method: The affinity of the compounds of the invention for vasopressin V2 receptors was measured in in vitro binding assays, as described in J. Pharmacol. Exp. Ther., (2002), 300, pp. 1122-1130.
Plasma membranes (approximately 20 μg/ml) originating from tissues or the CHO cell line expressing recombinant human vasopressin V2 receptors are incubated for 45 minutes at 25° C. in 200 μl of TRIS-HCl buffer (50 mM; pH 8.2) containing 2 mM of MgCl2, 1 mM of EDTA, 0.1% of BSA, 1 mg/ml of bacitracin and 3.5 nM of [H^3]-AVP. The reaction is stopped by filtration and washing over GF/B filters. The nonspecific binding is determined in the presence of 1 μM of AVP. The compounds of the invention, dissolved beforehand at the concentration of 10^−2 M in DMSO, are tested in a dilution range.
For each concentration, the results are expressed as percentage inhibition of specific binding. An IC50 (concentration of product that inhibits 50% of the specific binding) is determined for each of the products using the “RS1 binding” program (BBN Domain, Cambridge, Mass).

T1 sequence (P30518 whole entry): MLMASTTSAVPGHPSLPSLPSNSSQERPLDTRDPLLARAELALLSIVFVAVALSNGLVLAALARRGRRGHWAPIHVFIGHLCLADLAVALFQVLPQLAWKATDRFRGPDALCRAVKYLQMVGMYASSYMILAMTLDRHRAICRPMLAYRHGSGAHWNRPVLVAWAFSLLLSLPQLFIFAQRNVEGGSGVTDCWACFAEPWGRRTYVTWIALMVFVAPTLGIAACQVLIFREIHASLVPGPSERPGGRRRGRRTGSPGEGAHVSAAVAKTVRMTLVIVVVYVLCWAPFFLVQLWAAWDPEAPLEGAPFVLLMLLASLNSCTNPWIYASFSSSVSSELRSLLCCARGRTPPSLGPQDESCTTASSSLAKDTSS

Turning to `CCOc1ccc2c(c1)C1(CCC(OCC(=O)N3CCOCC3)CC1)C(=O)N2S(=O)(=O)c1ccc(C(=O)NC(C)(C)C)cc1OC` (stereo not shown) [Example], the IC50 was around 7.3 nM.
